Measurements published in ChEMBL document CHEMBL5052835, “Slc26a3 inhibitors and use thereof” (2021).
Calls of active or inactive are those of the source. No cut-off for these calls is given here.

Experiments:
Chloride anion exchanger = biological target: T1, Chloride anion exchanger (Mus musculus, UniProt Q9WVC8); experiment: Inhibition of mouse Slc26a3 transfected in rat FRT cells preincubated with forskolin, 8-Br-cGMP and PMA and measured by fluorescence assay; assay type: cell-based
T1 sequence (Q9WVC8 whole entry): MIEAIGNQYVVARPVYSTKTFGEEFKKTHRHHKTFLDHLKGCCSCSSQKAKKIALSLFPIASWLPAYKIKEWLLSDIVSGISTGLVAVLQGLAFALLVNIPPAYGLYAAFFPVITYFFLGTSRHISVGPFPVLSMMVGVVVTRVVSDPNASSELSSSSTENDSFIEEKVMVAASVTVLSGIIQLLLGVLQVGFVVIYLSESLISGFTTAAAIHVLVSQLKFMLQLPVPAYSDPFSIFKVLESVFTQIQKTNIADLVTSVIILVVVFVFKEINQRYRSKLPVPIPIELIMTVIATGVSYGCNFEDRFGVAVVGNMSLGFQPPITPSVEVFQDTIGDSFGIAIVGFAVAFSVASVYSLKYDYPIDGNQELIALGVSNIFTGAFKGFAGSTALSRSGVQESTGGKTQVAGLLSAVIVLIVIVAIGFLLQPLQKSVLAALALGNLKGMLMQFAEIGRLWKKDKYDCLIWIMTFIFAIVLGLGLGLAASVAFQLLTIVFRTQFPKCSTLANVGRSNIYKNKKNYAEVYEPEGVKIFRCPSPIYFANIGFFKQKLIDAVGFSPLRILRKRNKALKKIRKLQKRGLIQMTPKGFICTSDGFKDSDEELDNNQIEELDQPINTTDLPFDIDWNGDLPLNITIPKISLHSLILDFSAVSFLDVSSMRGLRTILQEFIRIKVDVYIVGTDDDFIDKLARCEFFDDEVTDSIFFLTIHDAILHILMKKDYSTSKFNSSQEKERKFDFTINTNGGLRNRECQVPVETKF

Mus musculus [1] = experiment: Inhibition of oxalate absorption in sodium oxalate-induced acute hyperoxaluria mouse model at 10 mg/kg, ip; assay type: functional, organism-based
[2] = Toxicity in loperamide-induced constipation model of female CD-1 mouse at 10 mg/kg, po assessed as diarrhea; assay type: organism-based; conditions: in vivo
Mus musculus [3] = organism: Mus musculus; experiment: Inhibition of oxalate absorption in high oxalate and low calcium diet-induced oxalate nephropathy model of mouse assessed as normalization of creatinine level; assay type: functional, organism-based
[4] = Toxicity in loperamide-induced constipation model of female CD-1 mouse at 10 mg/kg, po assessed as effect on stool parameters; assay type: organism-based; conditions: in vivo
Mus musculus [5] = experiment: In vivo inhibition of slc26a3 in loperamide-induced constipation model of female CD-1 mouse at 1 to 10 mg/kg, po assessed as reduction in stool weight; assay type: functional, organism-based; conditions: dose 1-10 mg/kg
Mus musculus [6] = experiment: In vivo inhibition of slc26a3 in loperamide-induced constipation model of female CD-1 mouse at 1 to 10 mg/kg, po assessed as reduction in pellet number; assay type: functional, organism-based; conditions: dose 1-10 mg/kg
Mus musculus [7] = experiment: In vivo inhibition of slc26a3 in loperamide-induced constipation model of female CD-1 mouse at 1 to 10 mg/kg, po assessed as reduction in stool water content; assay type: functional, organism-based; conditions: dose 1-10 mg/kg
Mus musculus [8] = experiment: In vivo inhibition of […] in loperamide-induced constipation model of female CD-1 mouse at 5 mg/kg, po assessed as reduction in stool water content; assay type: functional, organism-based
Colon = experiment: Inhibition of fluid absorption in distal colonic loop isolated from female CD-1 mouse at 10 uM assessed as effect on reduction in loop weight/length ratio; assay type: functional, tissue-based
Mus musculus [9] = experiment: In vivo inhibition of […] in loperamide-induced constipation model of female CD-1 mouse at 5 mg/kg, po assessed as reduction in stool weight; assay type: functional, organism-based
Mus musculus [10] = experiment: In vivo inhibition of […] in loperamide-induced constipation model of female CD-1 mouse at 5 mg/kg, po assessed as reduction in pellet number; assay type: functional, organism-based
Mus musculus [11] = experiment: In vivo inhibition of slc26a3 in loperamide-induced constipation model of female CD-1 mouse at 5 mg/kg, po assessed as reduction in stool water content; assay type: functional, organism-based
Mus musculus [12] = experiment: In vivo inhibition of slc26a3 in loperamide-induced constipation model of female CD-1 mouse at 5 mg/kg, po assessed as reduction in stool weight; assay type: functional, organism-based
Mus musculus [13] = experiment: In vivo inhibition of slc26a3 in loperamide-induced constipation model of female CD-1 mouse at 5 mg/kg, po assessed as reduction in pellet number; assay type: functional, organism-based

CCOc1ccc(-n2ccnc2SCC(=O)Nc2ccc(Cl)cc2)cc1
IC50 (Chloride anion exchanger; read-out: IC50): 1700 nM

CCc1ccc(NC(=O)CSc2nccn2-c2ccc(Cl)cc2)cc1
IC50 (Chloride anion exchanger; read-out: IC50): 5700 nM

Cc1cc(C)cc(COc2ccc3c(C)c(CC(=O)O)c(=O)oc3c2C)c1
IC50 (Chloride anion exchanger; read-out: IC50): 540 nM

Cc1c(CC(=O)O)c(=O)oc2c(C)c(OCc3cccc(I)c3)ccc12
inhibition (Mus musculus [1]): Active
Activity [2]: Non-Toxic
inhibition (Mus musculus [3]): Active
Activity [4]: Non-Toxic
inhibition (Mus musculus [5]): Active
inhibition (Mus musculus [6]): Active
inhibition (Mus musculus [7]): Active

Cc1c(CCC(=O)O)c(=O)oc2c(C)c(OCc3ccc(F)cc3)ccc12
IC50 (Chloride anion exchanger; frt): Not Active

COC(=O)CCc1c(C)c2ccc(OCc3cccc(OC)c3)c(C)c2oc1=O
IC50 (Chloride anion exchanger; frt): Not Active

O=C(CSc1nccn1-c1ccc(Cl)cc1)Nc1ccc(Br)cc1
IC50 (Chloride anion exchanger; read-out: IC50): 1800 nM

Cc1cccc(-n2ccnc2SCC(=O)Nc2ccc(Br)cc2)c1
IC50 (Chloride anion exchanger; read-out: IC50): 6400 nM

CCCCCOc1ccc2c(C)c(CC(=O)O)c(=O)oc2c1C
IC50 (Chloride anion exchanger; read-out: IC50): 1200 nM

COC(=O)CCc1c(C)c2ccc(OCc3ccc(C(C)(C)C)cc3)c(C)c2oc1=O
IC50 (Chloride anion exchanger; frt): Not Active

COc1ccc(-n2ccnc2SCC(=O)Nc2ccc(Br)cc2)cc1
IC50 (Chloride anion exchanger; read-out: IC50): 1900 nM

Cc1ccc(NC(=O)CSc2nccn2-c2ccc(Cl)cc2)cc1
IC50 (Chloride anion exchanger; read-out: IC50): 1600 nM

Cc1c(CC(=O)O)c(=O)oc2c(C)c(OCc3ccc(C(C)(C)C)cc3)ccc12
IC50 (Chloride anion exchanger; read-out: IC50): 4600 nM

Cc1cc(C)cc(-n2ccnc2SCC(=O)Nc2ccc(Cl)cc2)c1
IC50 (Chloride anion exchanger; read-out: IC50): 4600 nM

Cc1c(CC(=O)O)c(=O)oc2c(C)c(OCc3ccccc3F)ccc12
IC50 (Chloride anion exchanger; read-out: IC50): 510 nM

Cc1ccc2ccccc2c1COc1ccc2c(C)c(CCC(=O)O)c(=O)oc2c1C
IC50 (Chloride anion exchanger; frt): Not Active

O=C(CSc1nccn1-c1cccc(Cl)c1)Nc1ccc(Cl)cc1
IC50 (Chloride anion exchanger; read-out: IC50): 2200 nM

Cc1cc(C)cc(-n2ccnc2SCC(=O)Nc2ccc(Cl)c(Cl)c2)c1
IC50 (Chloride anion exchanger; read-out: IC50): 2500 nM

Cc1cccc(-n2ccnc2SCC(=O)Nc2ccc(Cl)cc2)c1
IC50 (Chloride anion exchanger; read-out: IC50): 6200 nM

Cc1ccc(NC(=O)CSc2nccn2-c2ccc(Cl)cc2)cc1Cl
IC50 (Chloride anion exchanger; read-out: IC50): 11000 nM

Cc1c(CC(=O)O)c(=O)oc2c(C)c(OCc3cccc(F)c3)ccc12
IC50 (Chloride anion exchanger; read-out: IC50): 840 nM

CCc1ccc(NC(=O)CSc2nccn2-c2ccc(OC)cc2)cc1
IC50 (Chloride anion exchanger; read-out: IC50): 6500 nM

CN1Cc2c(Cl)cc(Cl)cc2[C@H](c2cccc(S(=O)(=O)NCCOCCOCCNC(=O)NCCCCNC(=O)NCCOCCOCCNS(=O)(=O)c3cccc([C@@H]4CN(C)Cc5c(Cl)cc(Cl)cc54)c3)c2)C1
inhibition (Mus musculus [8]): Active
inhibition (Colon): inactive
inhibition (Mus musculus [9]): Active
inhibition (Mus musculus [10]): Active

COc1cccc(-n2ccnc2SCC(=O)Nc2ccc(C)cc2)c1
IC50 (Chloride anion exchanger; read-out: IC50): 7100 nM

Cc1c(CC(=O)O)c(=O)oc2c(C)c(OCc3cccc(Cl)c3)ccc12
IC50 (Chloride anion exchanger; read-out: IC50): 200 nM

CCc1ccc(NC(=O)CSc2nccn2-c2cccc(C)c2C)cc1
IC50 (Chloride anion exchanger; read-out: IC50): 3500 nM

O=C(CSc1nccn1-c1cccc(Cl)c1)Nc1ccc(Cl)c(Cl)c1
IC50 (Chloride anion exchanger; read-out: IC50): 2900 nM

Cc1cc(C)cc(-n2ccnc2SCC(=O)Nc2ccc(C)c(Cl)c2)c1
IC50 (Chloride anion exchanger; read-out: IC50): 2100 nM

Cc1c(CC(=O)O)c(=O)oc2c(C)c(OCc3cccc(C(F)(F)F)c3)ccc12
inhibition (Mus musculus [11]): Active
inhibition (Mus musculus [12]): Active
inhibition (Mus musculus [13]): Active

O=C(CSc1nccn1-c1ccc(Cl)cc1)Nc1cccc(C(F)(F)F)c1
IC50 (Chloride anion exchanger; read-out: IC50): 12000 nM

Cc1cccc(COc2ccc3c(C)c(CC(=O)O)c(=O)oc3c2C)c1
IC50 (Chloride anion exchanger; read-out: IC50): 480 nM

Cc1ccc(NC(=O)CSc2nccn2-c2ccccc2)cc1Cl
IC50 (Chloride anion exchanger; read-out: IC50): 1500 nM

O=C(CSc1nccn1-c1ccc(Cl)cc1)Nc1ccc(Cl)cc1
IC50 (Chloride anion exchanger; read-out: IC50): 1700 nM

O=C(CSc1nccn1-c1ccc(Cl)cc1)Nc1ccc([N+](=O)[O-])cc1
IC50 (Chloride anion exchanger; read-out: IC50): 7400 nM

O=C(CSc1nccn1-c1ccc(F)cc1)Nc1ccc(Cl)c(Cl)c1
IC50 (Chloride anion exchanger; read-out: IC50): 2600 nM
